Results on 1 substance are retold here after patent US12083304B2, “Kits for topical, isotonic compositions” (GLYCIOME, LLC, priority 2019, dated 2024).

The subject of the series is Arion lusitanicus. Kind of series: Slug Mucosal Irritation (SMI) assay. It counts as in vivo.

Experimental: The SMI assay uses slugs (Arion lusitanicus) as the test organism. The body wall of slugs consists of a mucosal surface comprising mucus secreting cells covering a sub epithelial connective tissue. Slugs that are placed on an irritant substance will actively produce mucus as a protective mechanism from noxious agents. Additionally, tissue damage of the slug's surface results in the release of proteins and enzymes. The protein concentration in the collected samples is determined with a protein quantitation kit.
The Slug Mucosal Irritation (SMI) assay was developed to predict the mucosal irritation potency of pharmaceutical formulations and ingredients. Briefly, the assay utilized the terrestrial slug Arion lusitanicus, whose body wall is a mucosal surface composed of different layers. The outer single-layered columnar epithelium contains cells with cilia, cells with microvilli, and mucus-secreting cells that cover the subepithelial connective tissue. […]
The method for testing the irritation potency of the formulations was evaluated by placing the slugs on 100 mg of the sample for 30 minutes daily for 3 successive days, and the amount of mucus produced was measured. […] The total mucus production (MP) percentage was calculated as a percent of the slug's body weight.

For Nonoxynol-9, under “100 mg, 30 minutes daily, 3 successive days, percent of slug body weight”, the “Total MP (%)” value came out at 8.2 ± 1.2%. Also, the MIP result (mucosal irritation potency class) was “high”.
